From patent EP2042491A1, “Pyridazines as fungicides” (Bayer CropScience AG, priority 2007, dated 2009)

test: physchem

| chromatographic logP | Structure (SMILES) |
| --- | --- |
| 0.88 | Cc1n[nH]c(=O)c(-c2c(F)cccc2Cl)c1O [VII-1, 4-(2-Chlor-6-fluorphenyl)-5-hydroxy-6-methylpyridazin-3(2H)-on] |
| 3.99 | Cc1cccc(Oc2c(C)nnc(Cl)c2-c2c(F)cccc2Cl)c1 [2-76] |
| 2.69 | NN(Cc1ccccc1)C(=O)Cc1c(F)cccc1Cl [III-1, N-Benzyl-2-(2-chlor-6-fluorphenyl)acetohydrazid] |
| 4.41 | Cc1cccc(Sc2c(C)nnc(Cl)c2-c2c(F)cccc2Cl)c1 [3-38] |
| 3.47 | Cc1nnc(Cl)c(-c2c(F)cccc2F)c1[S+]([O-])c1ccc(Cl)cc1 (stereo not shown) [4-1, 3-Chlor-4-(2,6-difluorphenyl)-5-[(4-chlorphenyl)sulfinyl]-6-methylpyridazin] |
| 3.18 | Cc1nnc(Cl)c(-c2c(F)cccc2Cl)c1Oc1ccc(C#N)cc1 [2-77] |
| 4.41 | Cc1nnc(Cl)c(-c2c(F)cccc2Cl)c1Oc1ccc(Cl)c(Cl)c1 [2-75] |
| 4.08 | Cc1nnc(Cl)c(-c2c(F)cccc2Cl)c1Sc1cccc(F)c1 [3-42] |
| 3.39 | COc1nnc(C)c(N2CCC(C)CC2)c1-c1c(F)cccc1F [6-1, 4-(2,6-Difluorphenyl)-3-methoxy-6-methyl-5-(4-methylpiperidin-1-yl)pyridazin] |
| 3.99 | CCC(C)Sc1c(C)nnc(Cl)c1-c1c(F)cccc1F (stereo not shown) [3-23] |
| 5.03 | Cc1nnc(Cl)c(-c2c(F)cccc2Cl)c1Oc1ccc(Oc2ccc(Cl)cc2)cc1 [2-82] |
| 4.13 | COc1cc(Cl)cc(Oc2c(C)nnc(Cl)c2-c2c(F)cccc2Cl)c1 [2-72] |
| 3.24 | Cc1nnc(Cl)c(-c2c(F)cccc2Cl)c1Cl [VIII-1, 3,5-Dichlor-4-(2-chlor-6-fluorphenyl)-6-methylpyridazin] |
| 4.03 | Cc1nnc(Cl)c(-c2c(F)cccc2Cl)c1Oc1cccc(Cl)c1 [2-74] |
| 4.32 | Cc1nnc(Cl)c(-c2c(F)cccc2Cl)c1Oc1cccc(OC(F)(F)F)c1 [2-79] |
| 4.03 | Cc1nnc(Cl)c(-c2c(F)cccc2Cl)c1Sc1ccc(F)cc1 [3-44] |
| 4.37 | Cc1nnc(Cl)c(-c2c(F)cccc2F)c1SC(C)C(C)C (stereo not shown) [3-21] |

More lines, now with the values behind:

| Structure (SMILES) | chromatographic logP |
| --- | --- |
| Cc1nnc(Cl)c(-c2c(F)cccc2F)c1Oc1ccc(Cl)cc1 [2-39] | 3.86 |
| C#CCOc1c(C)nnc(Cl)c1-c1c(F)cccc1F [2-36] | 2.5 |
| Cc1nnc(Cl)c(-c2c(F)cccc2Cl)c1Oc1ccc(Cl)cc1Cl [2-70] | 4.46 |
| Cc1nnc(Cl)c(-c2c(F)cccc2Cl)c1Oc1cccc(F)c1 [2-66] | 3.65 |
| Cc1nnc(Cl)c(-c2c(F)cccc2F)c1N1CCCC1 [1-65] | 2.57 |
| Cc1nnc(Cl)c(-c2c(F)cccc2F)c1N1CCC(C)CC1 [1-58, 3-Chlor-4-(2,6-difluorphenyl)-6-methyl-5-(4-methylpiperidin-1-yl)pyridazin] | 3.87 |
| Cc1nnc(Cl)c(-c2c(F)cccc2Cl)c1N1CCCC1 [1-98] | 2.82 |
| COCC(C)Nc1c(C)nnc(Cl)c1-c1c(F)cccc1F (stereo not shown) [1-53] | 2.25 |
| Cc1nnc(Cl)c(-c2c(F)cccc2Cl)c1N1CC[Si](C)(C)CC1 [1-95] | 4.75 |
| Cc1nnc(Cl)c(-c2c(F)cccc2Cl)c1Oc1ccccc1F [2-65] | 3.51 |
| Cc1nnc(Cl)c(-c2c(F)cccc2Cl)c1Oc1cccc(C#N)c1 [2-69] | 3.14 |
| Cc1nnc(Cl)c(-c2c(F)cccc2F)c1NCC1CC1 [1-52] | 2.46 |
| Cc1nnc(Cl)c(-c2c(F)cccc2F)c1OCC1CC1 [2-41] | 3.1 |
| Cc1nnc(Cl)c(-c2c(F)cccc2F)c1OCC1(C)CC1 [2-43] | 3.53 |
| Cc1nnc(Cl)c(-c2c(F)cccc2F)c1N1CCCC1C (stereo not shown) [1-64] | 3.08 |
| Cc1nnc(Cl)c(-c2c(F)cccc2F)c1NC(C)C(C)C (racemic) [1-62] | 2.99 |
| Cc1nnc(Cl)c(-c2c(F)cccc2F)c1NCC(C)C [1-48] | 2.64 |
